The source of these data is article PMC5632672, “Generation of Persister Cells of Pseudomonas aeruginosa and Staphylococcus aureus by Chemical Treatment and Evaluation of Their Susceptibility to Membrane-Targeting Agents” (Frontiers in Microbiology, 2017).

No end group written: not given here.

Assay [1] relates to Staphylococcus aureus ATCC 33591. The settings on record: ATCC 33591, 3 h.
For assay [2], the system named is Pseudomonas aeruginosa ATCC 27853. To be noted: ATCC 27853, 3 h.

On to FLPIVGLLKSLLK-NH2 [TB_L1FK], for which, in assay [1], the “MBC, S. aureus CCCP-pretreated” value was determined as 3.5 µM and the “MBC, S. aureus CCCP-untreated” value amounted to 7 µM. Further, in assay [2], the “MBC, P. aeruginosa CCCP-pretreated” value turned out to be 14 µM and the “MBC, P. aeruginosa CCCP-untreated” value was found to be 14 µM.
